Data taken from article PMC10902181 (Journal of neurochemistry, 2023).
Read-outs that look alike come from different tables or passages of the source.

What was measured:
Test in all cases: TEVC current recordings from Xenopus oocytes, channel blocker inhibition
Format in all cases: cell-based
[1] = target: GluN2A-N614S-containing NMDARs (Homo sapiens, UniProt Q05586+Q12879, N614S); settings: for % inhibition: 2A-N614S, 300 μM blocker, −40 mV; for IC50: IC50, 2A-N614S, holding −40 mV
GluN1/GluN2A-L611Q = GluN1/GluN2A-L611Q (Homo sapiens, UniProt Q05586+Q12879, L611Q); settings: for % inhibition: 2A-L611Q, 300 μM blocker, −40 mV; for IC50: IC50, 2A-L611Q, holding −40 mV
[2] = target: GluN2B-G611V-containing NMDARs (Homo sapiens, UniProt Q05586+Q13224, G611V); settings: for % inhibition: 2B-G611V, 300 μM blocker, −40 mV; for IC50: IC50, 2B-G611V, holding −40 mV
WT GluN1/GluN2B = WT GluN1/GluN2B (Homo sapiens, UniProt Q05586+Q13224); settings: for IC50: IC50, WT GluN1/WT 2B, holding −40 mV; for % inhibition: WT GluN1/WT 2B, 300 μM blocker, −40 mV
[3] = target: GluN2B-V620M-containing NMDARs (Homo sapiens, UniProt Q05586+Q13224, V620M); settings: for % inhibition: 2B-V620M, 300 μM blocker, −40 mV; for IC50: IC50, 2B-V620M, holding −40 mV
[4] = target: GluN2B-W607C-containing NMDARs (Homo sapiens, UniProt Q05586+Q13224, W607C); settings: for % inhibition: 2B-W607C, 300 μM blocker, −40 mV; for IC50: IC50, 2B-W607C, holding −40 mV
GluN1/GluN2B-N615K = GluN1/GluN2B-N615K (Homo sapiens, UniProt Q05586+Q13224, N615K); settings: for % inhibition: 300 μM blocker, −40 mV
[5] = target: GluN2B-V618G-containing NMDARs (Homo sapiens, UniProt Q05586+Q13224, V618G); settings: for % inhibition: 2B-V618G, 300 μM blocker, −40 mV; for IC50: IC50, 2B-V618G, holding −40 mV
GluN1/GluN2B-N615I = GluN1/GluN2B-N615I (Homo sapiens, UniProt Q05586+Q13224, N615I); settings: for % inhibition: 2B-N615I, 300 μM blocker, −40 mV; for IC50: IC50, 2B-N615I, holding −40 mV
GluN1-G620R/GluN2A = GluN1-G620R/GluN2A (Homo sapiens, UniProt Q05586+Q12879, G620R); settings: for % inhibition: 1-G620R/2A, 300 μM blocker, −40 mV; for IC50: IC50, 1-G620R/2A, holding −40 mV
[6] = target: GluN2A-N615K-containing NMDARs (Homo sapiens, UniProt Q05586+Q12879, N615K); settings: for % inhibition: 2A-N615K, 300 μM blocker, −40 mV; for IC50: IC50, 2A-N615K, holding −40 mV
WT GluN1/GluN2A = WT GluN1/GluN2A (Homo sapiens, UniProt Q05586+Q12879); settings: for IC50: IC50, WT GluN1/WT 2A, holding −40 mV; for % inhibition: WT GluN1/WT 2A, 300 μM blocker, −40 mV
[7] = target: GluN2B-N616K-containing NMDARs (Homo sapiens, UniProt Q05586+Q13224, N616K); settings: for % inhibition: 2B-N616K, 300 μM blocker, −40 mV; for IC50: IC50, 2B-N616K, holding −40 mV

## COc1ccc2c(c1)[C@]13CCCC[C@@H]1[C@H](C2)N(C)CC3 [dextromethorphan]
[1]; w/ 1 mM Mg^2+
  % inhibition: 85 ± 2.7% (11)
  IC50: 32 µM
[1]; w/o Mg^2+
  % inhibition: 85 ± 3.0% (10)^¥
  IC50: 22 µM
GluN1/GluN2A-L611Q; w/ 1 mM Mg^2+
  % inhibition: 89 ± 2.3% (8)
  IC50: 36 µM
GluN1/GluN2A-L611Q; w/o Mg^2+
  % inhibition: 91 ± 1.4% (16)
  IC50: 27 µM
[2]; w/ 1 mM Mg^2+
  % inhibition: 97 ± 1.0% (10)
  IC50: 6.2 µM
[2]; w/o Mg^2+
  % inhibition: 94 ± 2.3% (10)
  IC50: 3.6 µM
[2]; GluN2B-G611V, presence of 1 mM Mg^2+
  enhanced potency compared to the WT receptors: 3.5 fold
WT GluN1/GluN2B; w/ 1 mM Mg^2+
  IC50: 22 µM
  % inhibition: 90 ± 1.9% (18)
WT GluN1/GluN2B; w/o Mg^2+
  IC50: 4.8 µM
  % inhibition: 95 ± 1.2% (15)
[3]; w/ 1 mM Mg^2+
  % inhibition: 87 ± 3.2% (8)
  IC50: 3.5 µM
[3]; w/o Mg^2+
  % inhibition: 93 ± 3.2% (8)
  IC50: 1.8 µM
[3]; GluN2B-V620M, absence of Mg^2+
  enhanced potency in comparison to WT NMDARs: 2.7 fold
[3]; GluN2B-V620M, presence of 1 mM Mg^2+
  enhanced potency compared to the WT receptors: 6.3 fold
[4]; w/ 1 mM Mg^2+
  % inhibition: 95 ± 1.4% (12)
  IC50: 11 µM
[4]; w/o Mg^2+
  % inhibition: 90 ± 2.8% (11)
  IC50: 3.7 µM
[4]; GluN2B-W607C
  reduced potency in 1 mM Mg^2+ vs absence of Mg^2+: 3 fold
GluN1/GluN2B-N615K
  IC50: > 300 µM
GluN1/GluN2B-N615K; 2B-N615K, w/ 1 mM Mg^2+
  % inhibition: 33 ± 3.7% (18) ^*^¥
GluN1/GluN2B-N615K; 2B-N615K, w/o Mg^2+
  % inhibition: 14 ± 2.7% (8)^¥
GluN1/GluN2B-N615K; 2B-N615K, w/ 1 mM Mg^2+, holding −40 mV
  IC50: > 300 µM
[5]; w/ 1 mM Mg^2+
  % inhibition: 83 ± 4.0% (10)
  IC50: 71 µM
[5]; w/o Mg^2+
  % inhibition: 85 ± 1.7% (11)^¥
  IC50: 45 µM
[5]; GluN2B-V618G, presence of 1 mM Mg^2+
  reduced potency compared to the WT receptors: 3.2 fold
GluN1/GluN2B-N615I; w/ 1 mM Mg^2+
  % inhibition: 94 ± 1.5% (11)
  IC50: 17 µM
GluN1/GluN2B-N615I; w/o Mg^2+
  % inhibition: 95 ± 1.4% (14)
  IC50: 15 µM
GluN1-G620R/GluN2A; w/ 1 mM Mg^2+
  % inhibition: 96 ± 1.5% (8)^¥
  IC50: 4.4 µM
GluN1-G620R/GluN2A; w/o Mg^2+
  % inhibition: 97 ± 1.4% (14)
  IC50: 4.4 µM
GluN1-G620R/GluN2A; GluN1-G620R, absence of Mg^2+
  enhanced potency in comparison to WT NMDARs: 2.5 fold
GluN1-G620R/GluN2A; GluN1-G620R, presence of 1 mM Mg^2+
  enhanced potency compared to the WT receptors: 5.7 fold
[6]; w/ 1 mM Mg^2+
  % inhibition: 97 ± 0.9% (12)^¥
  IC50: 3 µM
[6]; w/o Mg^2+
  % inhibition: 98 ± 1.4% (8)
  IC50: 3.8 µM
[6]; GluN2A-N615K, absence of Mg^2+
  enhanced potency in comparison to WT NMDARs: 2.7 fold
[6]; GluN2A-N615K, presence of 1 mM Mg^2+
  enhanced potency compared to the WT receptors: 8.3 fold
WT GluN1/GluN2A; w/ 1 mM Mg^2+
  IC50: 25 µM
  % inhibition: 88 ± 3.3% (10)
WT GluN1/GluN2A; w/o Mg^2+
  IC50: 11 µM
  % inhibition: 95 ± 1.6% (19)
[7]; w/ 1 mM Mg^2+
  % inhibition: 93 ± 1.6% (7)
  IC50: 4.5 µM
[7]; w/o Mg^2+
  % inhibition: 94 ± 1.7% (10)
  IC50: 3.2 µM
[7]; GluN2B-N616K, presence of 1 mM Mg^2+
  enhanced potency compared to the WT receptors: 4.9 fold
